Test results from patent US6514692B2, “Method for treatment of immunodeficiency virus infection” (priority 1996, dated 2003).
Values joined by “and” are separate entries in the source; they are usually repeats but may differ in a detail not shown here. Identical values can stand only once. Like-named read-outs stand apart in the source and are kept apart here.

Tests used:
[1] = test system: SK1 isolate of HIV-1; conditions: for p24 VALUES, single samples: samples 1-3; for IC50 (inhibition of cell-cell transmission): linear regression
From the text: (§1) ME180 cells, a cervical epithelial cell line, were obtained from the American Type Culture Collection. These cells were thawed from liquid nitrogen and grown in RPMI 1640 medium supplemented with 10t fetal bovine serum, glutamine and antibiotics. The cells were adherent and were trypsinized (0.5% trypsin in HBSS) to remove them from the flask for passaging and use in assays. For use in the microtiter transmission inhibition assay, ME180 cells were trypsinized, washed and seeded in 96-well flat bottom microtiter plates (COSTAR) at a density of 5×10^3 cells per well. The cells were incubated at 37° C. for 24 hours prior to the tart of the assay. H9 cells chronically infected with he SK1 isolate of HIV-1 were treated with 200 μg/ml mitomycin C for 60 minutes at 37° C. After treatment the cells were washed three times with tissue culture medium. The chronically infected lymphocytes were added to each well at a density of 2×10^4 cells per well. The concentration of mitomycin C used in the treatment of the lymphocytes was chosen to allow lymphocyte survival for the period of time required to transmit virus to the uninfected ME180 cells, but to die prior to the time of assay so as not to contribute to the p24 signal used as the endpoint (see below). In the transmission assay the lytic peptides D4E1 and D2A21, with and without 150 μg/ml pig mucin, were added prior to the addition of chronically infected cells or were mixed with the chronically infected cells prior to their addition to the monolayer of ME180 cells. Mucin was included because it is an abundant constituent of the normal vaginal secretions of a human being, thus any chemotherapeutic agent targeting HIV should be active in its presence if it is to have clinical value. […] The lymphocytes and peptide were co-cultured with the ME180 cells for 6 hours and then removed by washing the ME180 monolayer four times with PBS. The plate was then incubated at 37° C. for six days. Medium was removed and changed every 48 hours during the incubation stage. No further peptide was added after the initial dose. At six days post-co-cultivation, the supernatant was removed from the wells and evaluated for the quantity of p24 antigen by ELISA. The ELISA was performed according to the manufacturer's recommendations. The amount of virus production in wells treated with various concentrations of the peptides was evaluated with appropriate cell and virus controls. Data are reported as a percent of virus control at each drug concentration. Linear regression analysis was used to calculate the […] and IC95 concentrations of the transmission inhibitor. […] TI represents the toxicity index, which is the ratio of the TC50/IC50, and is an indication of the relative concentrations window that exists between efficacy and toxicity.

[2] = test system: ME180 cells; assay: toxicity (XTT) in transmission inhibition assay; conditions: for TOXICITY VALUES (XTT), single samples: samples 1-3; for TC50 (concentration at which 50% of cells are eliminated): interpolation from % CC
From the text: as §1

[3] = 0.32 μg/ml, with 150 μg/ml pig mucin
[4] = 1 μg/ml, with 150 μg/ml pig mucin
[5] = 3.2 μg/ml, with 150 μg/ml pig mucin
[6] = 10 μg/ml, with 150 μg/ml pig mucin
[7] = 32 μg/ml, with 150 μg/ml pig mucin
[8] = 100 μg/ml, with 150 μg/ml pig mucin

dextran sulfate
% VC (p24, percent of virus control) ([1]; 0.32 μg/ml, no mucin): 5.9% | p24 VALUES, MEAN ([1]; 0.32 μg/ml, no mucin): 3.2 µg/mL | % VC (p24, percent of virus control) [1, 3]: 7.7% | p24 VALUES, MEAN [1, 3]: 4.5 µg/mL | p24 VALUES, single samples [1, 3]: 5.0 µg/mL and 3.2 µg/mL and 6.1 µg/mL | % VC (p24, percent of virus control) ([1]; 1 μg/ml, no mucin): 7.6% | p24 VALUES, MEAN ([1]; 1 μg/ml, no mucin): 4.1 µg/mL | % VC (p24, percent of virus control) [1, 4]: 7.8% | p24 VALUES, MEAN [1, 4]: 4.9 µg/mL | % VC (p24, percent of virus control) ([1]; 3.2 μg/ml, no mucin): 0.0% | p24 VALUES, MEAN ([1]; 3.2 μg/ml, no mucin): 0.0 µg/mL | p24 VALUES, single samples ([1]; 3.2 μg/ml, no mucin): 0.0 µg/mL | % VC (p24, percent of virus control) [1, 5]: 11.4% | p24 VALUES, MEAN [1, 5]: 7.1 µg/mL | % VC (p24, percent of virus control) ([1]; 10 μg/ml, no mucin): 0.2% | p24 VALUES, MEAN ([1]; 10 μg/ml, no mucin): 0.0 µg/mL | % VC (p24, percent of virus control) [1, 6]: 11.6% | p24 VALUES, MEAN [1, 6]: 7.2 µg/mL | % VC (p24, percent of virus control) ([1]; 32 μg/ml, no mucin): 0.0% | p24 VALUES, MEAN ([1]; 32 μg/ml, no mucin): 0.0 µg/mL | p24 VALUES, single samples ([1]; 32 μg/ml, no mucin): 0.0 µg/mL | % VC (p24, percent of virus control) [1, 7]: 14.6% | p24 VALUES, MEAN [1, 7]: 9.0 µg/mL | % VC (p24, percent of virus control) ([1]; 100 μg/ml, no mucin): 0.0% | p24 VALUES, MEAN ([1]; 100 μg/ml, no mucin): 0.0 µg/mL | p24 VALUES, single samples ([1]; 100 μg/ml, no mucin): 0.0 µg/mL | % VC (p24, percent of virus control) [1, 8]: 8.0% | p24 VALUES, MEAN [1, 8]: 4.9 µg/mL | IC50 (inhibition of cell-cell transmission) ([1]; no mucin): IC50 = 0.002 μg/ml | IC50 (inhibition of cell-cell transmission) ([1]; with 150 μg/ml pig mucin): IC50 = 0.002 μg/ml | % CC (XTT, percent of cell control) ([2]; 0.32 μg/ml, no mucin): 95.4% | TOXICITY VALUES (XTT), MEAN ([2]; 0.32 μg/ml, no mucin): 0.485 O.D. @ 450/650 nm | TOXICITY VALUES (XTT), single samples ([2]; 0.32 μg/ml, no mucin): 0.477 O.D. @ 450/650 nm and 0.473 O.D. @ 450/650 nm and 0.504 O.D. @ 450/650 nm | % CC (XTT, percent of cell control) [2, 3]: 95.4% | TOXICITY VALUES (XTT), MEAN [2, 3]: 0.485 O.D. @ 450/650 nm | TOXICITY VALUES (XTT), single samples [2, 3]: 0.477 O.D. @ 450/650 nm and 0.473 O.D. @ 450/650 nm and 0.504 O.D. @ 450/650 nm | % CC (XTT, percent of cell control) ([2]; 1 μg/ml, no mucin): 98.4% | TOXICITY VALUES (XTT), MEAN ([2]; 1 μg/ml, no mucin): 0.500 O.D. @ 450/650 nm | TOXICITY VALUES (XTT), single samples ([2]; 1 μg/ml, no mucin): 0.479 O.D. @ 450/650 nm and 0.519 O.D. @ 450/650 nm and 0.501 O.D. @ 450/650 nm | % CC (XTT, percent of cell control) [2, 4]: 98.4% | TOXICITY VALUES (XTT), MEAN [2, 4]: 0.500 O.D. @ 450/650 nm | TOXICITY VALUES (XTT), single samples [2, 4]: 0.479 O.D. @ 450/650 nm and 0.519 O.D. @ 450/650 nm and 0.501 O.D. @ 450/650 nm | % CC (XTT, percent of cell control) ([2]; 3.2 μg/ml, no mucin): 91.5% | TOXICITY VALUES (XTT), MEAN ([2]; 3.2 μg/ml, no mucin): 0.465 O.D. @ 450/650 nm | TOXICITY VALUES (XTT), single samples ([2]; 3.2 μg/ml, no mucin): 0.483 O.D. @ 450/650 nm and 0.456 O.D. @ 450/650 nm and 0.457 O.D. @ 450/650 nm | % CC (XTT, percent of cell control) [2, 5]: 91.6% | TOXICITY VALUES (XTT), MEAN [2, 5]: 0.465 O.D. @ 450/650 nm | TOXICITY VALUES (XTT), single samples [2, 5]: 0.483 O.D. @ 450/650 nm and 0.456 O.D. @ 450/650 nm and 0.457 O.D. @ 450/650 nm | % CC (XTT, percent of cell control) ([2]; 10 μg/ml, no mucin): 95.7% | TOXICITY VALUES (XTT), MEAN ([2]; 10 μg/ml, no mucin): 0.486 O.D. @ 450/650 nm | TOXICITY VALUES (XTT), single samples ([2]; 10 μg/ml, no mucin): 0.463 O.D. @ 450/650 nm and 0.499 O.D. @ 450/650 nm and 0.497 O.D. @ 450/650 nm | % CC (XTT, percent of cell control) [2, 6]: 95.7% | TOXICITY VALUES (XTT), MEAN [2, 6]: 0.486 O.D. @ 450/650 nm | TOXICITY VALUES (XTT), single samples [2, 6]: 0.463 O.D. @ 450/650 nm and 0.499 O.D. @ 450/650 nm and 0.497 O.D. @ 450/650 nm | % CC (XTT, percent of cell control) ([2]; 32 μg/ml, no mucin): 92.5% | TOXICITY VALUES (XTT), MEAN ([2]; 32 μg/ml, no mucin): 0.470 O.D. @ 450/650 nm | TOXICITY VALUES (XTT), single samples ([2]; 32 μg/ml, no mucin): 0.444 O.D. @ 450/650 nm and 0.466 O.D. @ 450/650 nm and 0.499 O.D. @ 450/650 nm | % CC (XTT, percent of cell control) [2, 7]: 92.5% | TOXICITY VALUES (XTT), MEAN [2, 7]: 0.470 O.D. @ 450/650 nm | TOXICITY VALUES (XTT), single samples [2, 7]: 0.444 O.D. @ 450/650 nm and 0.466 O.D. @ 450/650 nm and 0.499 O.D. @ 450/650 nm | % CC (XTT, percent of cell control) ([2]; 100 μg/ml, no mucin): 98.7% | TOXICITY VALUES (XTT), MEAN ([2]; 100 μg/ml, no mucin): 0.491 O.D. @ 450/650 nm | TOXICITY VALUES (XTT), single samples ([2]; 100 μg/ml, no mucin): 0.479 O.D. @ 450/650 nm and 0.500 O.D. @ 450/650 nm and 0.495 O.D. @ 450/650 nm | % CC (XTT, percent of cell control) [2, 8]: 98.7% | TOXICITY VALUES (XTT), MEAN [2, 8]: 0.491 O.D. @ 450/650 nm | TOXICITY VALUES (XTT), single samples [2, 8]: 0.479 O.D. @ 450/650 nm and 0.500 O.D. @ 450/650 nm and 0.495 O.D. @ 450/650 nm | TC50 (concentration at which 50% of cells are eliminated) ([2]; no mucin): TC50 = 1 μg/ml | TC50 (concentration at which 50% of cells are eliminated) ([2]; with 150 μg/ml pig mucin): TC50 = 1 μg/ml
